The experiment in a line: Inhibition of recombinant PP1.

Structures are written as SMILES.

Consider `C=C1C(=O)N[C@H](C)C(=O)N[C@@H](CCCNC(=N)N)C(=O)N[C@@H](C(=O)O)CC(=O)N[C@@H](CCCNC(=N)N)C(=O)N[C@@H](/C=C/C(C)=C/[C@H](C)[C@H](Cc2ccccc2)OC)[C@H](C)C(=O)N[C@@H](C(=O)O)CCC(=O)N1C`, for which the IC30 was 7.8 µM.
Regarding `CNC(=O)CC[C@@H](NC(=O)[C@@H](C)[C@H](/C=C/C(C)=C/[C@H](C)[C@H](Cc1ccccc1)OC)NC(=O)[C@H](CCCNC(=N)N)NC(=O)C[C@@H](NC(=O)[C@H](CCCNC(=N)N)NC(=O)[C@@H](C)NC(=O)C(C)=O)C(=O)O)C(=O)O`, the IC30 worked out at 0.8 µM.

One may read the IC30 as the point of the concentration-response curve where the effect stands at 30%.
